In patent US20240093259A1, “METHODS TO STABILIZE MAMMALIAN CELLS” (THE REGENTS OF THE UNIVERSITY OF CALIFORNIA, priority 2019, published 2024):

Experiments:
Assay type in all cases: cell-based, Chinese hamster
[1] = tested on: CHO-K1 cells; experiment: EJ5-GFP double-strand break (DSB) reporter flow cytometry assay in CHO-K1
Text: FIGS. 2A-2B show GFP-based double-strand break (DSB) reporter system. […] The spacer prevents the promoter from driving GFP expression. Step 2: Transient transfection with the DSB-inducing plasmid (B) induces two DSBs at the 5′ and 3′ ends of the spacer. Successfully transfected cells are identified through far-red fluorescence from miRFP670, fused to Cas9 (B). Step 3: Transfected cells that repair both DSBs properly keep the spacer in place and thus remain GFP-negative. Transfected cells that fail to repair both DSBs in time produce a large sequence loss, moving the GFP in proximity to the promoter, resulting in GFP expression. Thus, the fraction of GFP-positive cells among all transfected cells (far-red positive) serves as a read-out for the inefficiency of DSB repair. […]
The invention provides a tool to quantify double-strand break (DSB) repair in CHO. […] This reporter system comprises a GFP reading frame, separated from its promoter with a large (2 kb) spacer (FIG. 2A). […] Thus, this tool allows quantitative detection of DSB repair efficiency in living cells and is a powerful read-out for how restoration of individual DSB repair genes improves chromosome stability.
The EJ5-GFP reporter plasmid (addgene #44026) was linearized with XhoI and transfected into CHO-K1 and CHO-SEAP using electroporation (Neon, Thermo Fisher). […] Impaired DSB repair is detected by positive GFP expression. […]

[2] = tested on: CHO-K1 cells; experiment: Karyotype analysis after long-term culture (multi-color FISH chromosome painting); details: wild-type CHO-K1 cultured under permanent supplementation, 60 passages
Experimental: Metaphase spreads were prepared as previously described. Samples were labeled with multi-color DNA fluorescence in situ hybridization (FISH) probes (12× CHamster mFISH probe kit, MetaSystems) for spectral karyotyping as previously described. For karyotypic analyses, the most abundant karyotype across samples was defined as the representative (“main”) karyotype, and deviations from this karyotype were scored as a numerical alteration (whole-chromosomal aneuploidy) and/or structural alteration (inter-chromosomal rearrangement, visible deletion). Structurally aberrant karyotypes (FIG. 8b) were defined as karyotypes showing at least one structural deviation from the representative karyotype. Since unrepaired DSBs can lead to chromosomal aberrations, as mentioned above, we prepared karyotype samples of wildtype and engineered cell lines to analyze chromosomal aberrations on the single cell level. For this, both ATM+ and ATM+ PRKDC+ cell lines were cultured in parallel to the parental wildtype clone for a total of 60 passages (approx. 120 doublings) after which cells were arrested in mitosis, metaphase chromosomal spreads were prepared and stained with chromosome-specific probes (“chromosome painting”) to detect structural and numerical variations. […]

[3] = tested on: CHO-SEAP cells; experiment: Long-term culture SEAP titer (SEAP reporter assay); details: CHO-SEAP cells under constant 5 μM MTX supplementation, 48 passages
Experimental: Cells were cultured in triplicates on 6-well plates. All cells were treated with 5 μM methotrexate (MTX) (MilliporeSigma) for 2 weeks at the beginning of the study (P0-P7) after which only one triplicate per genotype was continued under MTX until the rest of the study. Cells were cultured for 48 passages in total, with 3 passages/week. […]. Protein titer was measured at P0, P7, and P48 using a SEAP reporter assay (Applied Biosystems, ThermoFisher).
To finally investigate whether DNA-repair optimization has beneficial effects on transgene expression, we grew CHO-SEAP WT and CHO-SEAP CMV::XRCC6 alongside in a long-term culture experiment, and compared SEAP titer at the beginning and the end. Prior to the start of the experiment, cells were cultured in 5 uM methotrexate (MTX) for 1 week to select for high SEAP expression, after which MTX was taken off the growth medium in half of the samples (FIG. 9c). MTX is a competitive inhibitor of dihydrofolate reductase, an essential metabolic enzyme, which is co-expressed with the transgenic SEAP locus (FIG. 9b).

| SMILES | fraction of GFP+ cells (inefficiency of DSB repair) ([1]; CHO-K1 carrying GFP reporter, DSB-inducer transfection, ATM inhibitor 3 μM, FACS 24h after transfection) | GFP+ positive cells (compromised DSB repair) ([1]; CHO-K1 wildtype carrying EJ5-GFP, DSB-inducing plasmid, vs DMSO (Example 2, FIG. 5c)) | structural abnormalities in karyotype [2] | SEAP titer at end of long-term culture [3] |
| --- | --- | --- | --- | --- |
| C[C@@H]1CN(CC(=O)Nc2ccc3c(c2)Cc2cccc(-c4cc(=O)cc(N5CCOCC5)o4)c2S3)C[C@H](C)O1 [KU-60019] | increases the fraction of GFP+ cells | significant increase in GFP+ positive cells | massive increase in structural abnormalities | – |
| CN(Cc1cnc2nc(N)nc(N)c2n1)c1ccc(C(=O)N[C@@H](CCC(=O)O)C(=O)O)cc1 [MTX, methotrexate] | – | – | – | no reduction in SEAP titer |
